Data: patent US20240426807A1, “SCREENING SYSTEM” (Givaudan SA, priority 2021, published 2024)
Entries after “also recorded” stand apart in the source; their conditions may differ.

Columns and labels:
Type in all cases: cell-based
OR10G9 = target: T1, OR10G9 (Homo sapiens, UniProt Q8NGN4); test: Ligand-induced OR-dependent puromycin resistance, OR10G9 cells; settings: HEK293T, pGL4.29-CRE-Puro-Hygro-OR with OR10G9; musk ketone 10 μM, eugenol or isoeugenol 1 μM, ultravanil or vanitrope 100 μM; puromycin 0.015-16 μg/ml; PrestoBlue viability day 4
T1 construct: expressed in transfected cells
T1 sequence (Q8NGN4 1-311): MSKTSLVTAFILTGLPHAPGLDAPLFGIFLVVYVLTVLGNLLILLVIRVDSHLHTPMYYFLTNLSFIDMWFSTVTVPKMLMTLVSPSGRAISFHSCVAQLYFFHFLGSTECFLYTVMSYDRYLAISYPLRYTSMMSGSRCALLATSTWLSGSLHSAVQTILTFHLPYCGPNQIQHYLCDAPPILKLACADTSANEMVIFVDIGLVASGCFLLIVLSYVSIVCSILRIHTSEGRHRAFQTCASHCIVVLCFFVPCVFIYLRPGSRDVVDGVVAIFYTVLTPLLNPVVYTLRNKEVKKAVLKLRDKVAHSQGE
Description: (§1) Stable clones selected with hygromycin containing a stable insertion of the pGL4.29-CRE-Puro-Hygro-OR construct described in Example 1 with either one of the receptors OR10G7, OR10G9 or OR5AN1 (NCBI Genbank Gene ID 390265, 219870 and 390195) were plated at a density of 3000 cells/per well in 200 μl Dubelcco's Modified Eagle medium (DMEM) in polyethyleneimide-coated, white 96 well microtiter plates with a transparent bottom. After cells were allowed to adhere for 24 h, they were exposed to different odorants (musk ketone at 10 μM, eugenol or isoeugenol at 1 μM, ultravanil or vanitrope at 100 μM). 7 h after odorant addition, 100 μl of the medium was removed and replaced with fresh medium with the same odorant concentrations and, in addition, puromycin to reach a final concentration of 0.015-16 μg/ml in 11 twofold dilution steps (day 1 of selection). On day 2 and 3, 100 μl of the medium was again removed and replaced with fresh medium with the same concentration of odorant and puromycin. On day 4 of the selection, medium from each well was removed completely, 100 ul PrestoBlue® cell viability reagent (ThermoFisher Scientific, Catalog No: 14200-083) diluted in phosphate buffered saline was added to each well and cells were incubated at 37° C. until a color change was visible in the wells containing no puromycin. The fluorescence was determined at 560 excitation and 590 nm emission to assess relative cell metabolic activity, which is the net result of cell growth and cell killing in presence of the different puromycin concentrations. The result was expressed as % viability relative to controls with no cells (0%) and cells treated with olfactory ligand only (100%).

OR5AN1 = target: T2, OR5AN1 (Homo sapiens, UniProt Q8NGI8); test: Ligand-induced OR-dependent puromycin resistance, OR5AN1 cells; settings: HEK293T, pGL4.29-CRE-Puro-Hygro-OR with OR5AN1; musk ketone 10 μM, eugenol or isoeugenol 1 μM, ultravanil 100 μM; puromycin 0.015-16 μg/ml; PrestoBlue viability day 4
T2 construct: expressed in transfected cells
T2 sequence (Q8NGI8 1-311): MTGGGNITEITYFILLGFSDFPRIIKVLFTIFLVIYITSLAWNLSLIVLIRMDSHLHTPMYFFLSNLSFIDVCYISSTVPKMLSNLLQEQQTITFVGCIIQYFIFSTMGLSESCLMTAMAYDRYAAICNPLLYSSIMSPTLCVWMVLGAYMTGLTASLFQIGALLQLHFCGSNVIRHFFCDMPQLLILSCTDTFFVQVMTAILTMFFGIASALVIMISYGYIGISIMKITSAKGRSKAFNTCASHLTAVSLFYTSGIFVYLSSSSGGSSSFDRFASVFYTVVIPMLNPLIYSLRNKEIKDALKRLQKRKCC
Description: as §1

OR10G7 = target: T3, OR10G7 (Homo sapiens, UniProt Q8NGN6, T5S); test: Ligand-induced OR-dependent puromycin resistance, OR10G7 cells; settings: HEK293T, pGL4.29-CRE-Puro-Hygro-OR with OR10G7; musk ketone 10 μM, eugenol or isoeugenol 1 μM, ultravanil or vanitrope 100 μM; puromycin 0.015-16 μg/ml; PrestoBlue viability day 4
T3 construct: expressed in transfected cells
T3 sequence (Q8NGN6 1-311 T5S): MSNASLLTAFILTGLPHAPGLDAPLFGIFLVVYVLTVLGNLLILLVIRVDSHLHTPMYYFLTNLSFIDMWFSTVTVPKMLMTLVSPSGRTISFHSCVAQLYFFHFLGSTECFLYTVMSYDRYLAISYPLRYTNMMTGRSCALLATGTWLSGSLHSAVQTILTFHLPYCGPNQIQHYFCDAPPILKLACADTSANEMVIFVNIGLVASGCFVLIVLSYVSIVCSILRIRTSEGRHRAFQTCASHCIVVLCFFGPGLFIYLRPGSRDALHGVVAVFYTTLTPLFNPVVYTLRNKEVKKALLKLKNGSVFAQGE
Description: as §1

OR5A2 (clone 3) = target: T4, OR5A2 (clone 3) (Homo sapiens, UniProt Q8NGI9); test: Ligand-induced puromycin resistance of isolated clone 3 containing OR5A2; settings: clone 3 (OR5A2), 11 concentrations of puromycin, co-treated with olfactory ligands
T4 construct: expressed in transfected cells; clone 3 selected with musk ambrette and puromycin
T4 sequence (Q8NGI9 with tags, fused parts or gaps): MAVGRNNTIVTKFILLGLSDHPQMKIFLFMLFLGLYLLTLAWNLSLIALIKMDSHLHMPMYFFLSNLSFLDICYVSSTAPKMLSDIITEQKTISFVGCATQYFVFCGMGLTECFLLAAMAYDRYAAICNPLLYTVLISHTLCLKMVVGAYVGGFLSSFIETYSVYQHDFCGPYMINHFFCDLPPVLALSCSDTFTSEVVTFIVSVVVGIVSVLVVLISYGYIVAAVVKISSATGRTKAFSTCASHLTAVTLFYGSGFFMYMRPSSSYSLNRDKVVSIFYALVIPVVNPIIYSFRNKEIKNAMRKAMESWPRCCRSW

| Compound | puromycin resistance in presence of odorant versus solvent control (OR10G9) | puromycin resistance in presence of odorant versus solvent control (OR5AN1) | puromycin resistance in presence of odorant versus solvent control (OR10G7) | puromycin resistance of clone 3 in presence of odorant (OR5A2 (clone 3)) |
| --- | --- | --- | --- | --- |
| CC(=O)c1c(C)c([N+](=O)[O-])c(C(C)(C)C)c([N+](=O)[O-])c1C [musk ketone] | no increased resistance | increased resistance to puromycin; also recorded: enhanced puromycin resistance | does not increase resistance over solvent control; also recorded: no induced puromycin resistance over solvent control |  |
| C=CCc1ccc(O)c(OC)c1 [eugenol] | no increased resistance | do not increase resistance over solvent control; also recorded: the resistance was equal to the solvent control | increased resistance to puromycin; also recorded: strongly enhanced puromycin resistance | no increased resistance |
